From PubChem BioAssay AID330 (DTP/NCI, 2004) come the findings set out here.

Values joined by “and” are separate entries in the source; they are usually repeats but may differ in a detail not shown here. Identical values can stand only once. Inconclusive results and toxic doses are left out.

In the test the test system is P388 leukemia ip, CD2F1 mice, survival T/C. In words: NCI In Vivo Anticancer Drug Screen. Data for tumor model P388 Leukemia (intraperitoneal) in CD2F1 (CDF1) mice. Particulars: endpoint: median survival time, higher = longer survival. In short, it runs like this: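 Mice carrying the transplanted tumor received test compound or vehicle. Survival was recorded in each group, and the value is the treated-group measurement divided by that of the vehicle-treated control group.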

[1] abbreviates: dose: 50.0 mg/kg/injection, schedule: Q01DX005 (ip), vehicle: saline with Tween-80.
Setting [2] is: dose: 100.0 mg/kg/injection, schedule: Q01DX005 (ip), vehicle: saline with Tween-80.
[3] abbreviates: dose: 200.0 mg/kg/injection, schedule: Q01DX005 (ip), vehicle: saline with Tween-80.
[4] abbreviates: dose: 60.0 mg/kg/injection, schedule: Q01DX005 (ip), vehicle: saline with Tween-80.
Where [5] appears, read: dose: 120.0 mg/kg/injection, schedule: Q01DX005 (ip), vehicle: saline with Tween-80.
[6] abbreviates: dose: 240.0 mg/kg/injection, schedule: Q01DX005 (ip), vehicle: saline with Tween-80.
The mark [7] stands for this setting: dose: 60.0 mg/kg/injection, schedule: Q01DX005 (ip), vehicle: Klucel (hydroxypropylcellulose) (HPC).
Setting [8] is: dose: 120.0 mg/kg/injection, schedule: Q01DX005 (ip), vehicle: Klucel (hydroxypropylcellulose) (HPC).
The mark [9] stands for this setting: dose: 240.0 mg/kg/injection, schedule: Q01DX005 (ip), vehicle: Klucel (hydroxypropylcellulose) (HPC).
Setting [10] is: dose: 50.0 mg/kg/injection, schedule: Q01DX005 (ip), vehicle: saline.
Where [11] appears, read: dose: 100.0 mg/kg/injection, schedule: Q01DX005 (ip), vehicle: saline.
Setting [12] is: dose: 200.0 mg/kg/injection, schedule: Q01DX005 (ip), vehicle: saline.
The mark [13] stands for this setting: dose: 12.5 mg/kg/injection, schedule: Q01DX009 (ip), vehicle: Klucel (hydroxypropylcellulose) (HPC).
Setting [14] is: dose: 25.0 mg/kg/injection, schedule: Q01DX009 (ip), vehicle: Klucel (hydroxypropylcellulose) (HPC).
The mark [15] stands for this setting: dose: 50.0 mg/kg/injection, schedule: Q01DX009 (ip), vehicle: Klucel (hydroxypropylcellulose) (HPC).
[16] abbreviates: dose: 50.0 mg/kg/injection, schedule: Q01DX005 (ip), vehicle: Klucel (hydroxypropylcellulose) (HPC).
The mark [17] stands for this setting: dose: 100.0 mg/kg/injection, schedule: Q01DX005 (ip), vehicle: Klucel (hydroxypropylcellulose) (HPC).
Where [18] appears, read: dose: 200.0 mg/kg/injection, schedule: Q01DX005 (ip), vehicle: Klucel (hydroxypropylcellulose) (HPC).
Setting [19] is: dose: 100.0 mg/kg/injection, schedule: Q04DX003 (ip), vehicle: saline with Tween-80.
[20] abbreviates: dose: 200.0 mg/kg/injection, schedule: Q04DX003 (ip), vehicle: saline with Tween-80.
Where [21] appears, read: dose: 100.0 mg/kg/injection, schedule: Q01DX009 (ip), vehicle: Klucel (hydroxypropylcellulose) (HPC).
The mark [22] stands for this setting: dose: 200.0 mg/kg/injection, schedule: Q01DX009 (ip), vehicle: Klucel (hydroxypropylcellulose) (HPC).

For `Cc1nc2cc(C(=O)NC=O)c3n[nH]nc3c2n1C`, the T/C reads like this: (dose: 4.0 mg/kg/injection, schedule: Q01DX005 (ip), vehicle: DMSO) 98 % of control; (dose: 8.0 mg/kg/injection, schedule: Q01DX005 (ip), vehicle: DMSO) 103 % of control; (dose: 16.0 mg/kg/injection, schedule: Q01DX005 (ip), vehicle: DMSO) 94 % of control; (dose: 32.0 mg/kg/injection, schedule: Q01DX005 (ip), vehicle: DMSO) 93 % of control.
In the case of `Clc1ccccc1-n1cccc1/C=N\N=C/c1cccn1-c1ccccc1Cl`, the T/C under setting [1] was 107 % of control; the T/C under setting [2] is 110 % of control and 86 % of control; the T/C under setting [3] is 121 % of control and 86 % of control and 90 % of control.
Regarding `COc1cc([N+](=O)[O-])c(S(=O)(=O)O)cc1NS(=O)(=O)c1ccc(C)cc1`, the T/C was 110 % of control under setting [4], 101 % of control under setting [5] and 97 % of control under setting [6].
In the case of `CCOC(=O)C1C(c2cc(OC)c(OC)c(OC)c2)c2cc3c(cc2OC1(C)N1CCCC1)OCO3` (configuration not stated), the T/C is 97 % of control under setting [7], 96 % of control under setting [8] and 96 % of control under setting [9].
Regarding `CCOC(=O)C1(C)OC1c1ccc([N+](=O)[O-])cc1` (configuration not stated), the T/C (dose: 100.0 mg/kg/injection, schedule: Q04DX003 (ip), vehicle: Klucel (hydroxypropylcellulose) (HPC)) was 97 % of control; the T/C (dose: 200.0 mg/kg/injection, schedule: Q04DX003 (ip), vehicle: Klucel (hydroxypropylcellulose) (HPC)) was 94 % of control; the T/C (dose: 400.0 mg/kg/injection, schedule: Q04DX003 (ip), vehicle: Klucel (hydroxypropylcellulose) (HPC)) is 100 % of control.
Consider `COc1cc2c(cc1OC)C(CC1CCN(C)CC1)NCC2` (configuration not stated), for which the T/C reads like this: under setting [10], 106 % of control; under setting [11], 103 % of control; under setting [12], 103 % of control.
On to `O/N=C(\C[P+](c1ccccc1)(c1ccccc1)c1ccccc1)c1ccccc1`, for which the T/C was 100 % of control under setting [13], 99 % of control under setting [14] and 102 % of control under setting [15].
Consider `Cc1c2cc[n+](Cc3ccc(I)cc3)cc2c(C)c2c1[nH]c1ccccc12`, for which the T/C by setting is: (dose: 11.75 mg/kg/injection, schedule: Q04DX002 (ip), vehicle: saline with Tween-80) 112 % of control; (dose: 23.5 mg/kg/injection, schedule: Q04DX002 (ip), vehicle: saline with Tween-80) 116 % of control; (dose: 47.0 mg/kg/injection, schedule: Q04DX002 (ip), vehicle: saline with Tween-80) 124 % of control.
Turning to `CCC(CN1N=C(c2ccc(Cl)cc2)CCC1=O)C(=O)CCC(=O)O` (configuration not stated), the T/C was 104 % of control under setting [16], 105 % of control under setting [17] and 113 % of control under setting [18].
In the case of `NC(=S)N/N=C/c1nc2ccccc2[nH]1`, the T/C runs as follows: (dose: 25.0 mg/kg/injection, schedule: Q04DX003 (ip), vehicle: saline with Tween-80) 100 % of control; (dose: 50.0 mg/kg/injection, schedule: Q04DX003 (ip), vehicle: saline with Tween-80) 100 % of control; under setting [19], 106 % of control; under setting [20], 91 % of control.
As for `O=C(O)CCCc1ccc2c(c1)OCO2`, the T/C was 113 % of control under setting [1], 98 % of control under setting [2] and 106 % of control under setting [3].
Turning to `CS(=O)(=O)/C=C/c1cccc(O)c1`, the T/C is 97 % of control under setting [15], 96 % of control under setting [21] and 89 % of control under setting [22].
For `CC(=O)OCC1OC(n2cnc3c(=O)n(S(=O)(=O)c4ccc(C)cc4)cnc32)C(OC(C)=O)C1OC(C)=O` (configuration not stated), the T/C by setting is: under setting [4], 103 % of control; under setting [5], 106 % of control; under setting [6], 100 % of control.
Take `NS(=O)(=O)c1ccc(NC(=O)CCl)cc1`: the T/C runs as follows: under setting [13], 110 % of control; under setting [14], 108 % of control and 120 % of control; under setting [15], 110 % of control and 121 % of control; under setting [21], 121 % of control.
For the compound `CCOC(=O)C(Cc1ccc(N(CCCl)CCCl)cc1)NC(=O)C(CC(C)C)NC(C)=O` (configuration not stated), the T/C runs as follows: (dose: 3.12 mg/kg/injection, schedule: Q01DX009 (ip), vehicle: Klucel (hydroxypropylcellulose) (HPC)) 162 % of control; (dose: 5.0 mg/kg/injection, schedule: Q04DX003 (ip), vehicle: water) 105 % of control; (dose: 6.25 mg/kg/injection, schedule: Q01DX009 (ip), vehicle: Klucel (hydroxypropylcellulose) (HPC)) 172 % of control; (dose: 10.0 mg/kg/injection, schedule: Q04DX003 (ip), vehicle: water) 107 % of control; under setting [13], 241 % of control and 254 % of control; (dose: 20.0 mg/kg/injection, schedule: Q04DX003 (ip), vehicle: water) 108 % of control. Besides, the T/C reads like this: under setting [14], 119 % of control; (dose: 40.0 mg/kg/injection, schedule: Q04DX003 (ip), vehicle: other) 122 % of control; (dose: 40.0 mg/kg/injection, schedule: Q04DX003 (ip), vehicle: water) 109 % of control; under setting [15], 104 % of control and 97 % of control; (dose: 80.0 mg/kg/injection, schedule: Q04DX003 (ip), vehicle: other) 116 % of control.
On to `COC(=O)c1csc(-c2ccc(CO)o2)n1`, for which the T/C runs as follows: under setting [1], 105 % of control; under setting [2], 98 % of control; under setting [3], 93 % of control.
Regarding `COc1cccc2c(=O)cc(-c3ccccc3)sc12`, the T/C under setting [7] was 98 % of control, the T/C under setting [8] was 97 % of control and the T/C under setting [9] is 90 % of control.
`CCCCSc1n[nH]c(C2CCC(=O)N2Cc2ccccc2)n1` (configuration not stated): the T/C was 100 % of control under setting [4], 93 % of control under setting [5] and 91 % of control under setting [6].
In the case of `O=C(O)COc1nc(Cl)c(Cl)cc1Cl`, the T/C under setting [7] was 101 % of control and 104 % of control; the T/C under setting [8] is 103 % of control; the T/C under setting [9] was 113 % of control and 94 % of control.
On to `C=C1C(=O)OC2CC3(C)OC3CC/C(C)=C/C(OC(C)=O)C12` (configuration not stated), for which the T/C was 111 % of control (dose: 12.5 mg/kg/injection, schedule: Q01DX005 (ip), vehicle: saline with Tween-80); 111 % of control (dose: 25.0 mg/kg/injection, schedule: Q01DX005 (ip), vehicle: saline with Tween-80); 111 % of control and 112 % of control under setting [1].
For `O=c1[nH]cc([N+](=O)[O-])cc1Cl`, the T/C is, setting by setting: under setting [1], 104 % of control; under setting [2], 95 % of control.
`O=C1c2ccccc2C(=O)N1c1ccccc1Br`: the T/C runs as follows: under setting [16], 100 % of control; under setting [17], 97 % of control; under setting [18], 101 % of control.
Turning to `CN(C)C(OCCCC(=O)O)C(Cl)(Cl)Cl` (configuration not stated), the T/C was 113 % of control under setting [15], 96 % of control under setting [21] and 109 % of control under setting [22].
As for `COC(=O)C(=O)C(C)C(=O)C(C)c1nc2n(c1O)C(=N)N=N2` (configuration not stated), the T/C under setting [10] is 98 % of control, the T/C under setting [11] was 97 % of control and the T/C under setting [12] is 96 % of control.
Regarding `O=C(C[n+]1cccc2ccccc21)c1ccc(F)cc1`, the T/C was 119 % of control under setting [15], 97 % of control under setting [21] and 91 % of control under setting [22].
As to `[N-]=[N+]=Nc1ccc(SSCCC(=O)ON2C(=O)CCC2=O)cc1`, the T/C reads like this: under setting [1], 118 % of control; under setting [2], 116 % of control.
Take `Cc1ccc(NC(=O)Nc2ccccc2C(N)=O)cc1`: the T/C under setting [19] is 95 % of control; the T/C under setting [20] was 95 % of control; the T/C (dose: 400.0 mg/kg/injection, schedule: Q04DX003 (ip), vehicle: saline with Tween-80) was 90 % of control.
Consider `COc1ccc(Nc2ccc([N+](=O)[O-])c3nonc23)cc1`, for which the T/C is, setting by setting: under setting [1], 92 % of control; under setting [2], 87 % of control.
